Laboratory results: US12344610B2, “APOL1 inhibitors and methods of use” (Maze Therapeutics, Inc., priority 2022, dated 2025)
Where two headings read alike, the source gives them in different places.

Experiments:
[1] = test system: Trypanosoma brucei Lister 427 VSG221 with APOL1 G0 recombinant protein; assay: APOL1 G0 trypanosome cell rescue assay (Example B5); type: cell-based; details: geometric mean of at least 2 assay runs, † = single assay run
Method in brief: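 Compounds in duplicate 2-fold, 11-point series with 0.4% DMSO final. Next, tag-free mature APOL1 variant protein went in from a 2 μg/mL solution, then trypanosomes to 250 per well. Plates incubated 20 h humidified at 37° C, equilibrated to room temperature, and CellTiter-Glo added for luminescence.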

[2] = test system: HEK293 clonal cell line overexpressing APOL1 G1; assay: APOL1 G1 HEK293 cell rescue assay (Example B3); type: cell-based; details: geometric mean of at least 2 runs, † = single run, ¥ = concentration at 50% rescue estimated (no sigmoidal curve)
Method in brief: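 HEK293 clonal line overexpressing APOL1 G1; EC50 is half-maximal reversal of APOL1-induced cell death. Values are the geometric mean of ≥2 runs on separate days, each run the average of duplicate wells. Where no sigmoidal curve could be fitted, the concentration giving 50% rescue was estimated.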

[3] = Trypanosoma brucei, 20 h, read-out: APOL1 G0 Trypanosome Rescue EC50, Trypanosoma brucei Lister 427 VSG221 with APOL1 G0 recombinant protein, 20 hours, CellTiter-Glo
[4] = Homo sapiens, HEK293, HEK293 clonal line overexpressing APOL1 G1

Row | Structure (SMILES) | EC50 [1, 3] | EC50 [2, 4] | EC50 ([1]; read-out: APOL1 G0 Trypanosome Rescue EC50, Trypanosoma brucei Lister 427 VSG221 with APOL1 G0 recombinant protein, 20 hours, CellTiter-Glo) | EC50 ([2]; HEK293 clonal line overexpressing APOL1 G1)
1 | CS(=O)(=O)c1ccc(OCCN2CCC3(CC2)C(=O)Nc2ccc(Br)cc23)cc1 [Compound 72, 5-bromo-1′-[2-(4-methanesulfonylphenoxy)ethyl]-1,2-dihydrospiro[indole-3,4′-piperidin]-2-one] | 128 nM | 161 nM | – | –
2 | C[C@]1(O)C[C@@H](n2c(=O)ccc3cc(OCCN4CCC5(CC4)C(=O)Nc4ccc(OC(F)F)cc45)cnc32)C1 [Compound 328, 5-(difluoromethoxy)-1′-[2-({7-oxo-8-[(cis)-3-hydroxy-3-methylcyclobutyl]-7,8-dihydro-1,8-naphthyridin-3-yl}oxy)ethyl]-1,2-dihydrospiro[indole-3,4′-piperidin]-2-one] | 79.9 nM | 98.2 nM | – | –
3 | CC(C)[C@]1(O)C[C@@H](N2C(=O)CCc3cc(OCCN4CCC5(CC4)C(=O)Nc4ccc(Cl)cc45)cnc32)C1 [Compound 317, 5-chloro-1′-[2-({7-oxo-8-[(cis)-3-hydroxy-3-(propan-2-yl)cyclobutyl]-5,6,7,8-tetrahydro-1,8-naphthyridin-3-yl}oxy)ethyl]-1,2-dihydrospiro[indole-3,4′-piperidin]-2-one] | 33 nM | 45.6 nM | – | –
4 | C[C@]1(O)C[C@@H](N2C(=O)CCc3cc(OCCN4CCC5(CC4)C(=O)Nc4ccc(OC(F)F)cc45)cnc32)C1 [Cmpd 325, 5-(difluoromethoxy)-1′-[2-({7-oxo-8-[(cis)-3-hydroxy-3-methylcyclobutyl]-5,6,7,8-tetrahydro-1,8-naphthyridin-3-yl}oxy)ethyl]-1,2-dihydrospiro[indole-3,4′-piperidin]-2-one] | 213 nM | 197 nM | – | –
5 | CS(=O)(=O)c1c(F)cc(OCCN2CCC3(CC2)C(=O)Nc2ccccc23)cc1F [Compound 42, 1′-[2-(3,5-difluoro-4-methanesulfonylphenoxy)ethyl]-1,2-dihydrospiro[indole-3,4′-piperidin]-2-one] | 1260 nM | 1080 nM | – | –
6 | CC(c1ccc(OCCN2CCC3(CC2)C(=O)Nc2ccc(Cl)cc23)cc1)S(C)(=O)=O (single isomer, unassigned) [Compound 39, 5-chloro-1′-(2-{4-[(1S) or (1R)-1-methanesulfonylethyl]phenoxy}ethyl)-1,2-dihydrospiro[indole-3,4′-piperidin]-2-one] | 156 nM | > 247 nM | – | –
7 | CS(=O)(=O)c1ccc(OCCN2CCC3(CC2)C(=O)Nc2ccc(Cl)cc23)cc1 [Compound 69, 5-chloro-1′-[2-(4-methanesulfonylphenoxy)ethyl]-1,2-dihydrospiro[indole-3,4′-piperidin]-2-one] | 153 nM | 311 nM | – | –
8 | CC1(O)CC(CN2C(=O)CCc3cc(OCCN4CCC5(CC4)C(=O)Nc4ccc(Cl)cc45)cnc32)C1 (stereo not shown) [Compound 327, 5-chloro-1′-[2-({8-[(3-hydroxy-3-methylcyclobutyl)methyl]-7-oxo-5,6,7,8-tetrahydro-1,8-naphthyridin-3-yl}oxy)ethyl]-1,2-dihydrospiro[indole-3,4′-piperidin]-2-one] | 39.9 nM | 84.4 nM | – | –
9 | C[C@]1(O)C[C@@H](n2nnc3cc(OCCN4CCC5(CC4)C(=O)Nc4ccc(C#N)cc45)cc(C(F)(F)F)c32)C1 [Compound 435, 2-oxo-1′-[2-({1-[(cis)-3-hydroxy-3-methylcyclobutyl]-7-(trifluoromethyl)-1H-1,2,3-benzotriazol-5-yl}oxy)ethyl]-1,2-dihydrospiro[indole-3,4′-piperidine]-5-carbonitrile] | 27.1 nM | 38.4 nM | – | –
10 | CC[C@]1(O)C[C@@H](N2C(=O)CCc3cc(OCCN4CCC5(CC4)C(=O)Nc4ccc(Cl)cc45)cnc32)C1 (single isomer, unassigned) [Compound 321, 5-chloro-1′-[2-({7-oxo-8-[(cis)-3-ethyl-3-hydroxycyclobutyl]-5,6,7,8-tetrahydro-1,8-naphthyridin-3-yl}oxy)ethyl]-1,2-dihydrospiro[indole-3,4′-piperidin]-2-one] | 39.6 nM | 47.7 nM | – | –
11 | CC(=O)N1CCCc2cc(OCCN3CCC4(CC3)C(=O)Nc3ccc(Cl)cc34)ccc21 [Compound 56, 1′-{2-[(1-acetyl-1,2,3,4-tetrahydroquinolin-6-yl)oxy]ethyl}-5-chloro-1,2-dihydrospiro[indole-3,4′-piperidin]-2-one] | 296 nM | 330 nM | – | –
12 | O=C1CCc2cc(OCCN3CCC4(CC3)C(=O)Nc3ccc(Cl)cc34)cnc2N1[C@H]1C[C@@H](CO)C1 (single isomer, unassigned) [Compound 319, 5-chloro-1′-[2-({7-oxo-8-[(cis)-3-(hydroxymethyl)cyclobutyl]-5,6,7,8-tetrahydro-1,8-naphthyridin-3-yl}oxy)ethyl]-1,2-dihydrospiro[indole-3,4′-piperidin]-2-one] | 69.7 nM | 118 nM | – | –
13 | C[C@]1(O)C[C@@H](n2c(=O)[nH]c3cc(OCCN4CCC5(CC4)C(=O)Nc4ccc(Cl)cc45)cc(C(F)(F)F)c32)C1 [Compound 468, 5-chloro-1′-[2-({2-oxo-1-[(cis)-3-hydroxy-3-methylcyclobutyl]-7-(trifluoromethyl)-2,3-dihydro-1H-1,3-benzodiazol-5-yl}oxy)ethyl]-1,2-dihydrospiro[indole-3,4′-piperidin]-2-one] | 3.72 nM | 14.5 nM | – | –
14 | C[C@]1(O)C[C@@H](N2C(=O)C3(CC3)c3cc(OCCN4CCC5(CC4)C(=O)Nc4ccc(Cl)cc45)cnc32)C1 [Compound 460, 5-chloro-1′-(2-{2′-oxo-1′-[(cis)-3-hydroxy-3-methylcyclobutyl]-1′,2′-dihydrospiro[cyclopropane-1,3′-pyrrolo[2,3-b]pyridin]-5′-yloxy}ethyl)-1,2-dihydrospiro[indole-3,4′-piperidin]-2-one] | 104 nM | 97.7 nM | – | –
15 | C[C@]1(O)C[C@@H](n2cnc3cc(OCCN4CCC5(CC4)C(=O)Nc4ccc(Cl)cc45)cc(C(F)(F)F)c32)C1 [Compound 352, 5-chloro-1′-[2-({1-[(cis)-3-hydroxy-3-methylcyclobutyl]-7-(trifluoromethyl)-1H-1,3-benzodiazol-5-yl}oxy)ethyl]-1,2-dihydrospiro[indole-3,4′-piperidin]-2-one] | 18.7 nM | 9.95 nM | – | –
16 | CS(=O)(=O)c1ccc(OCCN2CCC3(CC2)C(=O)Nc2ccc(C#N)cc23)cc1 [Compound 71, 1′-[2-(4-methanesulfonylphenoxy)ethyl]-2-oxo-1,2-dihydrospiro[indole-3,4′-piperidine]-5-carbonitrile] | 814 nM | 1340 nM | – | –
17 | O=C1CCc2cc(OCCN3CCC4(CC3)C(=O)Nc3ccc(Cl)cc34)cnc2N1C1CC(CO)C1 (stereo not shown) [Compound 326, 5-chloro-1′-[2-({8-[3-(hydroxymethyl)cyclobutyl]-7-oxo-5,6,7,8-tetrahydro-1,8-naphthyridin-3-yl}oxy)ethyl]-1,2-dihydrospiro[indole-3,4′-piperidin]-2-one] | 88.6 nM | 104 nM | – | –
18 | O=C1Nc2ccc(Cl)cc2C12CCN(CCOc1ccc3nccnc3c1)CC2 [Compound 62, 5-chloro-1′-[2-(quinoxalin-6-yloxy)ethyl]-1,2-dihydrospiro[indole-3,4′-piperidin]-2-one] | 407 nM | 433 nM | – | –
19 | C[C@]1(O)C[C@@H](N2C(=O)NCc3cc(OCCN4CCC5(CC4)C(=O)Nc4ccc(Cl)cc45)cnc32)C1 [Compound 356, 5-chloro-1′-[2-({2-oxo-1-[(cis)-3-hydroxy-3-methylcyclobutyl]-1H,2H,3H,4H-pyrido[2,3-d]pyrimidin-6-yl}oxy)ethyl]-1,2-dihydrospiro[indole-3,4′-piperidin]-2-one] | 101 nM | 162 nM | – | –
20 | C[C@]1(O)C[C@@H](n2cnc3cc(OCCN4CCC5(CC4)C(=O)Nc4ccc(Cl)cc45)cc(C#N)c32)C1 [Compound 439, 5-(2-{5-chloro-2-oxo-1,2-dihydrospiro[indole-3,4′-piperidin]-1′-yl}ethoxy)-1-[(cis)-3-hydroxy-3-methylcyclobutyl]-1H-1,3-benzodiazole-7-carbonitrile] | 50.5 nM | 45.5 nM | – | –
21 | NC(=O)c1ccc(OCCN2CCC3(CC2)C(=O)Nc2ccc(Cl)cc23)cc1 [Compound 45, 4-(2-{5-chloro-2-oxo-1,2-dihydrospiro[indole-3,4′-piperidin]-1′-yl}ethoxy)benzamide] | 476 nM | 387 nM | – | –
22 | C[C@]1(O)C[C@H](n2ncc3cc(OCCN4CCC5(CC4)C(=O)Nc4ccc(Cl)cc45)cnc32)C1 (single isomer, unassigned) [Compound 408, 5-chloro-1′-[2-({1-[(trans)-3-hydroxy-3-methylcyclobutyl]-1H-pyrazolo[3,4-b]pyridin-5-yl}oxy)ethyl]-1,2-dihydrospiro[indole-3,4′-piperidin]-2-one] | 84.8 nM | 56 nM | – | –
23 | CC1(O)CC(c2ncc(OCCN3CCC4(CC3)C(=O)Nc3ccc(Cl)cc34)cn2)C1 (single isomer, unassigned) [Compound 393, 5-chloro-1′-[2-({2-[(cis) or (trans)-3-hydroxy-3-methylcyclobutyl]pyrimidin-5-yl}oxy)ethyl]-1,2-dihydrospiro[indole-3,4′-piperidin]-2-one] | – | – | 300 nM | 159 nM
